The target of test [1] is T1, human D1 dopamine receptor (clone HGL26) (Homo sapiens, UniProt P21728). The test is described as follows: Adenylyl cyclase activity in membranes of mouse fibroblasts [L-M(TK^-)] expressing HGL26. Particulars: for block of dopamine-stimulated adenylyl cyclase activity: dopamine 100 μM, SCH23390 and raclopride 1 μM each. The test is classed as biochemical.
Test [2] deals with T1, human D1 dopamine receptor (clone HGL26). Put plainly: Competition for [^125 I]SCH23982 binding to membranes of COS-7 cells expressing HGL26. Set-up: a 2.3 kb EcoRI-XbaI restriction fragment containing the open reading frame was subcloned into the expression vector pCMV5; expressed in transfected cells; host or cells: African green monkey kidney COS-7 cells, transient, pCMV5.

The target of test [3] is T2, human D1 dopamine receptor (clone HGR213-1) (Homo sapiens, UniProt P21728). The test is classed as binding. Also noted: expressed in transfected cells; host or cells: monkey kidney COS-7 cells, transient, PBC12BI. Particulars: FIG. 4 competition curves.
Test [4] addresses T2, human D1 dopamine receptor (clone HGR213-1). The test is described as follows: cAMP accumulation in human embryonic kidney 293 cells transfected with HGR213-1. Background: cAMP levels reflect the balance of adenylyl cyclase and phosphodiesterase activity.
Test [5] relates to untransfected COS-7 cells. Put plainly: Specific binding of [^3 H]SCH23390 to untransfected COS-7 cells. Set-up: species or system monkey. Particulars: data not shown. How it is done: Membranes were prepared by homogenizing cells with a ConTorque homogenizer at 4° C. in TEM buffer. The homogenate was centrifuged at 800 g for 10 min and the pellet was subjected to a second homogenization and centrifugation. Supernatants were pooled and centrifuged at 100,000 g for 1 h. The pellet was then resuspended in TEM buffer at appropriate protein concentration and stored in small aliquots at -70° C. […] Binding was initiated by the addition of membrane preparation (20-30 μg protein) and carried on at 30° C. for 1 h. Nonspecific binding was defined in the presence of 10 μM (+)Butaclamol. The samples were filtered through glass fiber filters (Schleicher and Schuell No.32) and washed three times with 4 ml ice-cold 10 mM Tris pH 7.4. The radioactivity retained on the filter was counted using a Beckman LS6800 scintillation counter. […] See J. Bunzow et al., Nature 336,783 (1988). […] A LIGAND computer program was used for data analysis and curve fitting.

The target of test [6] is T1, human D1 dopamine receptor (clone HGL26). The test is described as follows: Saturation binding of [^125 I]SCH23982 to membranes of COS-7 cells expressing HGL26. The conditions noted are these: transfected COS-7 membranes vs antisense construct. Set-up: a 2.3 kb EcoRI-XbaI restriction fragment containing the open reading frame was subcloned into the expression vector pCMV5; expressed in transfected cells; host or cells: African green monkey kidney COS-7 cells, transient, pCMV5. How it is done: To identify the protein encoded by genomic clone HGL26, a 2.3 kb EcoRI-XbaI restriction fragment containing the open reading frame was subcloned into the expression vector pCMV5 and transiently transfected into African green monkey kidney (COS-7) cells. See Andersson, S. et al., J. Biol. Chem. 264, 8222-8229 (1989). The DEAE-dextran method was used for transient transfection of COS-7 cells. See Cullen, B. Meth. Enzymol. 152, 684-704 (1987). After 48 hours, transfected cells were lysed and homogenized in ice-cold lysis buffer (10 mM Tris HCl, pH 7.4, 5 mM EDTA). The homogenate was centrifuged at 43,000 g for 30 min at 4° C. The resulting pellet was resuspended in lysis buffer, re-homogenized, and re-centrifuged. This pellet was resuspended in an assay buffer containing 50 mM Tris HCl, pH 7.4, 100 mM NaCl, 5 mM EDTA.
See Sidhu, A. et al., J. Eur. J. Pharmacol. 128, 213-220 (1986).

Test [7] relates to α1-adrenergic receptor. Particulars: α1-adrenergic receptor-transfected COS-7 cells; data not shown.
The mark [8] stands for this setting: ~0.3 nM [^125 I]SCH23982, 1 hr, room temperature, means of 2-5 independent determinations, one-site model, read-out: Kd (apparent equilibrium dissociation constant) for [^125 I]SCH23982 binding sites.

“Also recorded” adds a separate entry of the source. Where two headings read alike, the source gives them in different places.

T1 sequence (P21728 whole entry, the tested form may be a part): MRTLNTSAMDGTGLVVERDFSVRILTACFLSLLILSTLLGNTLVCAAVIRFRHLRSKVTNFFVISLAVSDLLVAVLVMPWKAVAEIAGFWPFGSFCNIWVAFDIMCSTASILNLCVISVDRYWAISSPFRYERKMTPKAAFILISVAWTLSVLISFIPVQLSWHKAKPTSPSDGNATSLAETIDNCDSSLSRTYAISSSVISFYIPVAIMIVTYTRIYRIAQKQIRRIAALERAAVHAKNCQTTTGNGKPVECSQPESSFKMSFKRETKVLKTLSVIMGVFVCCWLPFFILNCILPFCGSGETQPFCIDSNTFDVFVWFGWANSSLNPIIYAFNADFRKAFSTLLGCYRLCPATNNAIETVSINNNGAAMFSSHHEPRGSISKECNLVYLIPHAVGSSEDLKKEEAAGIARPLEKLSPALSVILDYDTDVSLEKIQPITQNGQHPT
T2 sequence (P21728 whole entry): as the sequence (P21728 whole entry, the tested form may be a part) above

Regarding `CCN1CCC[C@H]1CNC(=O)c1c(O)c(Cl)cc(Cl)c1OC` (racemic) [raclopride], in test [1], the “block of dopamine-stimulated adenylyl cyclase activity” value was “not by the D2 antagonist raclopride”. Moreover, the Kd in test [2] (setting [8]) was more than 72000 nM. `CN1CCc2cc(Cl)c(O)cc2[C@@H](c2ccccc2)C1` [SCH23390]: in test [3], the “potency in competition with [^3 H]SCH23390 (in words)” value is reported as “most potent” and the “rank order of ligand potency” value was “SCH23390<(+)Butaclamol>Flupenthixol>>Haloperidol”. Besides, the “block of dopamine-stimulated adenylyl cyclase activity” value in test [1] is “blocked”. The “antagonism of agonist-stimulated cAMP production” value in test [4] is “blocked; also recorded: antagonized”. With `Oc1cc2c(cc1O)C(c1ccccc1)CNCC2` (stereo not drawn) [SKF38393], in test [1] (SKF38393 and quinpirole, 1 μM each), the “stimulation of adenylyl cyclase activity (in words)” value is “also stimulated enzyme activity”. `Oc1ccc(C2CNCCc3c2cc(O)c(O)c3Cl)cc1` (stereo not drawn) [SKF82526]: the “potency in competition with [^3 H]SCH23390 (in words)” value in test [3] was “most potent”. Turning to `CN1CCc2cc(Cl)c(O)cc2C(c2ccccc2)C1` (stereo not drawn) [[^3 H]SCH23390], the “specific binding to untransfected cells” value in test [5] was “no specific binding”. Turning to `CN1CCc2cc([125I])c(O)cc2[C@@H](c2ccccc2)C1` [[^125 I]SCH23982], in test [6], the “increase in specific binding compared to cells transfected with an antisense construct” value was 10- to 30 fold.

For the compound `C=CCc1ccccc1OCC(O)CNC(C)C` (stereo not drawn) [alprenolol], the Kd in test [2] was 16000 nM. With `OCCN1CCN(CC/C=C2/c3ccccc3Sc3ccc(C(F)(F)F)cc32)CC1` [cis-flupenthixol], the “rank order of ligand potency” value in test [3] is given as “SCH23390<(+)Butaclamol>Flupenthixol>>Haloperidol”. For the compound `OCCC1CCN(CC/C=C2/c3ccc(F)cc3Sc3ccc(C(F)(F)F)cc32)CC1` [cis-piflutixol], the Kd in test [2] (setting [8]) stood at 0.2 nM. With `CNC[C@H](O)c1ccc(O)c(O)c1` [epinephrine], the “stimulation of phosphatidylinositol (PI) metabolism” value in test [7] is “potently evoked this response”.

`O=C(CCCN1CCC2(CC1)C(=O)NCN2c1ccccc1)c1ccc(F)cc1` [spiperone] yielded a Kd in test [2] of 220 nM.

(Values after patent US5547845A (Duke University, priority 1994, dated 1996).)
